Assay results reported in patent US12115208B2, “Small-molecule adjuvants for antibiotics to address antibiotic resistance” (HIGH POINT UNIVERSITY, priority 2017, dated 2024).

How the values were obtained:
[1] = tested on: S. aureus 43300 pre-formed biofilm; experiment: Biofilm dispersion assay; type: cell-based; conditions: Staphylococcus aureus, S. aureus 43300 (MRSA)
Method: (§1) Overnight cultures of S. aureus or S. epidermidis were subcultured to an OD600 of 0.01 in tryptic soy broth supplemented with 0.5% glucose (TSBG). For USA300Δ/+stk1, TSBG was supplemented with 0.2% xylose to induce transcription of stk1. 100 μl of the culture was distributed into rows 2-11 of a 96-well polyvinylchloride plate. Rows 1 and 12 were filled with 100 μl of sterile water and served as the negative controls. […] After the incubation period, the media was discarded and the plates were washed with water to remove non-adherent cells. Media containing the desired concentrations of compound was prepared and 100 μl was added to the desired rows. Media alone was added as a positive control and sterile water was added as a negative control. The plates were sealed with Glad Press-n-Seal and incubated under stationary conditions for another 24 hours. The media was discarded and plates were washed with water to remove any non-adherent bacteria. 110 μl of an aqueous crystal violet solution (0.1%) was added to each well and allowed to rest at room temperature to stain any biomass. After 30 minutes, the crystal violet solution was discarded and the plates were washed with water. The stained biomass was dissolved in 95% ethanol (200 μl) for 30 minutes and 125 μl was transferred to the corresponding wells of a flat-bottomed polystyrene 96-well plate. The absorbance of each well was measured at 540 nm. The wells that contained only water were used as background and subtracted from wells containing cultures.
(§2) Biofilm dispersion was quantified by calculating the ratio of the absorbance of the treated wells as compared to the untreated wells. These values were plotted and fit to a curve to determine the EC50.
(§3) Loratadine was also tested for the ability to disperse pre-formed biofilms. Biofilm dispersion is reported as an EC50, which is defined as the concentration of compound required to disperse 50% of the preformed biofilm.

[2] = tested on: S. aureus 29213 pre-formed biofilm; experiment: Biofilm dispersion assay; type: cell-based; conditions: Staphylococcus aureus
Method: as §1, §2, §3

[3] = tested on: S. aureus USA300 pre-formed biofilm; experiment: Biofilm dispersion assay; type: cell-based; conditions: Staphylococcus aureus, S. aureus USA300 (MRSA)
Method: as §1, §2, §3

[4] = tested on: S. aureus USA100 pre-formed biofilm; experiment: Biofilm dispersion assay; type: cell-based; conditions: Staphylococcus aureus, S. aureus USA100 (MRSA)
Method: as §1, §2, §3

[5] = tested on: S. aureus NR-49120 (VRSA); experiment: Antibiotic repotentiation (antibiotic MIC with/without compound); type: cell-based, Staphylococcus aureus; conditions: +50 μM compound, S. aureus NR-49120 (VRSA)
Method: (§4) The overnight culture was diluted into fresh CAMHB to a concentration of 5×10^5 CFU/ml. […] On the same plate, a standard microdilution MIC with the tested antibiotics and no added compound was also performed to compare the antibiotic MIC in the presence and absence of compound. […] Fold reductions were calculated by dividing the MIC of the antibiotic without compound by the MIC of the antibiotic in the presence of compound.

S. aureus USA100 (MRSA) = experiment: as above; type: cell-based, Staphylococcus aureus; conditions: +50 μM compound, S. aureus USA100 (MRSA)
Method: as §4

[6] = tested on: various S. aureus strains; experiment: microbe, parasite or virus in culture; conditions: Staphylococcus aureus, read-out: MICs
MRSA 43300 biofilm = experiment: Biofilm inhibition, crystal violet assay; type: cell-based, Staphylococcus aureus; conditions: 30 h
Method: (§5) A standard static crystal violet assay was used to quantify biofilm inhibition.^45 Cultures of S. aureus or S. epidermidis were grown overnight in TSBG (tryptic soy broth with 5% glucose) at 37° C. with shaking. These cultures were used to inoculate fresh TSBG to a calculated optical density of 0.01 at 600 nm (OD600). […] Untreated aliquots were used as a positive control and water served as a negative control. 100 μl of these suspensions were added to the wells of a 96-well polyvinylchloride microtiter plate. […] After incubation, media was discarded and the plates were washed with water to remove non-adherent cells. Adherent biofilms were stained with 110 μl of crystal violet (0.1% in water) and incubated at room temperature for thirty minutes. The crystal violet staining solution was discarded and plates were washed with water to remove excess stain. The resulting stained biofilms were solubilized with 200 μL of 95% ethanol for 10 minutes. 125 μl of the ethanol solutions were transferred to a clear polystyrene microtiter plate for evaluation. Absorbance at 540 nm was recorded using a BioTek Synergy H1 microplate reader. The absorbance of the negative control lanes was subtracted from the experimental values to account for background staining. Percent inhibition was calculated by comparison of the absorbance values of control versus treated wells under identical conditions.
Antibiotic resistance and biofilm formation share similar regulatory mechanisms. […] Biofilm inhibition was first assessed in S. aureus 43300, a methicillin-resistant strain (see Table 18). As described in Materials and Methods, a standard crystal violet assay was used to assess biofilm inhibition by the tested compounds. The IC50 is described as the compound concentration required to inhibit 50% of biofilm formation. The standard deviation is calculated from at least 3 independent experiments.

S. aureus ATCC 29213 = experiment: Minimum inhibitory concentration, broth microdilution; type: cell-based; conditions: Staphylococcus aureus, ATCC29213; compound alone; S. aureus ATCC 29213; CAMHB, 18 h; read-out: MIC
Method: (§6) The compounds were then analyzed for antibiotic repotentiation activity. […] The tested strains included USA300, which is a common and particularly virulent strain of community-acquired MRSA.

S. aureus USA300 (MRSA) = experiment: as above; type: cell-based, Staphylococcus aureus; conditions: Staphylococcus aureus; compound alone; S. aureus USA300 (MRSA); CAMHB, 18 h; read-out: MIC
Method: as §6

[7] = tested on: S. aureus ATCC 43300 (MRSA); experiment: as above; type: cell-based, Staphylococcus aureus; conditions: Staphylococcus aureus; compound alone; S. aureus ATCC 43300 (MRSA); CAMHB, 18 h; read-out: MIC
Method: as §6

S. epidermidis 49461 = experiment: Antibiotic repotentiation (oxacillin MIC with/without compound); type: cell-based, Staphylococcus epidermidis; conditions: +50 μM compound, S. epidermidis 49461
Method: as §4
Antibiotic potentiation in S. epidermidis was also investigated.

[8] = tested on: S. epidermidis ATCC 49461 biofilm; experiment: Biofilm inhibition, crystal violet assay; type: cell-based, Staphylococcus epidermidis; conditions: Staphylococcus epidermidis, ATCC49461, 30 h, read-out: Inhibition of biofilm formation IC50
Method: as §5

[9] = tested on: S. aureus NR-49120 (VRSA); experiment: microbe, parasite or virus in culture; conditions: Staphylococcus aureus, 18 h
Method: Minimum inhibitory concentrations were determined using a standard serial broth microdilution method. […] Mid-log-phase cultures were diluted to a concentration of approximately 5×10^5 CFU/ml in cation-adjusted Mueller-Hinton broth (CAMHB). Wells 2-11 of a 96-well polyvinylchloride microtiter plate were inoculated with 100 μl of bacterial suspension. 100 μl of uninnoculated CAMHB was added to well 12 to serve as a negative control. The top wells were inoculated with 200 μl of bacterial suspension with either antibiotics or compounds added. Serial dilutions were performed in wells 2-10, leaving well 11 to serve as the positive control. The microtiter plates were covered with Press-n-Seal and incubated at 37° C. for 18 hours without agitation. Plates were scored by visual detection of well turbidity.

EC50 [1]: > 200 µM
EC50 [2]: > 200 µM
EC50 [3]: > 200 µM
EC50 [4]: 121 µM
Oxacillin MIC [5]: 16 µg/mL
Oxacillin MIC (S. aureus USA100 (MRSA)): 0.5 µg/mL
MIC [6]: > 200 µM
IC50 (MRSA 43300 biofilm): 11.5 µM
IC50 (MRSA 43300 biofilm; Staphylococcus aureus, MRSA): 11.4 µM
MIC (S. aureus ATCC 29213): > 200 µM
MIC (S. aureus USA300 (MRSA)): > 200 µM
MIC [7]: > 200 µM
Oxacillin MIC (S. epidermidis 49461): 16 µg/mL
IC50 [8]: 25.1 ± 3.65 µM
MIC [9]: > 200 µM
SMILES: CCOC(=O)N1CCC(=C2c3ccc(Cl)cc3CCc3cccnc32)CC1 [Loratadine, ethyl 4-(8-chloro-5,6-dihydrobenzo[1,2]cyclohepta[2,4-b]pyridin-11-ylidene)piperidine-1-carboxylate]
Fold Reduction ([5]; oxacillin MIC): 8
Fold Reduction (S. aureus USA100 (MRSA); oxacillin MIC): 512
Fold Reduction (S. epidermidis 49461; oxacillin MIC): 1
